From US4539322A, “Dihydropyridine derivatives and their use in treating heart conditions and hypertension” (Pfizer Inc., priority 1982, dated 1985)
pIC50: −log10 of the molar value. Counter-ions that a name gives are not always drawn.

Test system: rat aorta
Assay: Inhibition of calcium-induced contraction of isolated rat aorta strips (reduction of response to added calcium chloride in K+-containing saline)
Assay type: cell-based
Settings: 0.75 h; spirally cut rat aorta strips, 45 millimolar potassium, calcium 2 millimolar, test repeated with compound after 45 minutes; read-out: molar concentration of the compounds required to reduce the response by 50% (IC50)
Experimental: The ability of the compounds to inhibit the movement of calcium into the cell is shown by their effectiveness in reducing the response of isolated heart tissue to an increase in calcium ion concentration in vitro. The test is performed by mounting spirally cut strips of rat aorta with one end fixed and the other attached to a force transducer. The tissue is immersed in a bath of physiological saline solution containing potassium ion s at a concentration of 45 millimolar and no calcium. Calcium chloride is added to the bath with a pipette to give a final calcium ion concentration of 2 millimolar. The change in tension caused by the resulting contraction of the tissue is noted. The bath is drained and replaced with fresh saline solution and, after 45 minutes, the test is repeated with the particular compound under test present in the saline solution. The concentration of compound required to reduce the response by 50% is recorded.

pIC50	SMILES
8.00	CCOC(=O)C1=C(COCCN2CCN(C(=NC)NC#N)CC2)NC(C)=C(C(=O)OC)C1c1ccccc1Cl (stereo not shown) [Example 1, 4-(2-chlorophenyl)-2-[2-[4-(N-cyano-N'-methyl-amidino)piperazin-1-yl]ethoxymethyl]-3-ethoxycarbonyl-5-methoxy-carbonyl-6-methyl-1,4-dihydropyridine, oxalate salt]
7.85	CCOC(=O)C1=C(COCCN2CCN(C(=NC#N)N3CCCC3)CC2)NC(C)=C(C(=O)OC)C1c1ccccc1Cl (stereo not shown) [Example 2]
8.00	CCOC(=O)C1=C(COCCN2CCN(C(=NC#N)NC(C)C)CC2)NC(C)=C(C(=O)OC)C1c1ccccc1Cl (stereo not shown) [Example 3]
8.15	CCOC(=O)C1=C(COCCN2CCN(C(=NC#N)N(C)C)CC2)NC(C)=C(C(=O)OC)C1c1ccccc1Cl (stereo not shown) [Example 4]
7.00	CCOC(=O)C1=C(COCCN2CCN(C(N)=NC#N)CC2)NC(C)=C(C(=O)OC)C1c1ccccc1Cl (stereo not shown) [Example 5]
7.00	CCOC(=O)C1=C(COCCN2CCN(C(=NC#N)NCCN(C)C)CC2)NC(C)=C(C(=O)OC)C1c1ccccc1Cl (stereo not shown) [Example 6]
7.00	CCOC(=O)C1=C(COCCN2CCN(C(=NS(C)(=O)=O)NC)CC2)NC(C)=C(C(=O)OC)C1c1ccccc1Cl (stereo not shown) [Example 7]
7.73	CCOC(=O)C1=C(COCCN2CCN(C(=NS(=O)(=O)c3ccccc3)NC)CC2)NC(C)=C(C(=O)OC)C1c1ccccc1Cl (stereo not shown) [Example 8]
7.82	CCOC(=O)C1=C(COCCN2CCN(C(=NC#N)NC)CC2)NC(C)=C(C(=O)OC)C1c1cccc(Cl)c1Cl (stereo not shown) [Example 9]
8.20	CCOC(=O)C1=C(COCCN2CCN(C(=S)NC)CC2)NC(C)=C(C(=O)OC)C1c1ccccc1Cl (stereo not shown) [Example 10, 4-(2-chlorophenyl)-3-ethoxycarbonyl-5-methoxy-carbonyl-6-methyl-2-[2-(4-(N-methylthiocarbamoyl)-piperazin-1-yl)ethoxymethyl]-1,4-dihydropyridine, hydrochloride salt]
7.86	CCOC(=O)NC(=S)N1CCN(CCOCC2=C(C(=O)OCC)C(c3ccccc3Cl)C(C(=O)OC)=C(C)N2)CC1 (stereo not shown) [Example 11]
8.70	CCOC(=O)C1=C(COCCN2CCN(C(=O)NC(C)(C)C)CC2)NC(C)=C(C(=O)OC)C1c1ccccc1Cl (stereo not shown) [Example 12]
8.22	CCOC(=O)C1=C(COCCN2CCN(C(=O)NC)CC2)NC(C)=C(C(=O)OC)C1c1ccccc1Cl (stereo not shown) [Example 13]
8.43	CCOC(=O)C1=C(COCCN2CCN(C(N)=O)CC2)NC(C)=C(C(=O)OC)C1c1ccccc1Cl (stereo not shown) [Example 14]
8.30	CCOC(=O)C1=C(COCCN2CCN(C(=O)Nc3ccccc3)CC2)NC(C)=C(C(=O)OC)C1c1ccccc1Cl (stereo not shown) [Example 15]
6.60	CCOC(=O)C1=C(COCCN2CCN(C(=O)NS(=O)(=O)c3ccc(C)cc3)CC2)NC(C)=C(C(=O)OC)C1c1ccccc1Cl (stereo not shown) [Example 16]
7.01	CCOC(=O)CNC(=O)N1CCN(CCOCC2=C(C(=O)OCC)C(c3ccccc3Cl)C(C(=O)OC)=C(C)N2)CC1 (stereo not shown) [Example 17]
8.16	CCOC(=O)C1=C(COCCN2CCN(C(=O)NC3CC3)CC2)NC(C)=C(C(=O)OC)C1c1ccccc1Cl (stereo not shown) [Example 18]
7.80	CCCCNC(=O)N1CCN(CCOCC2=C(C(=O)OCC)C(c3ccccc3Cl)C(C(=O)OC)=C(C)N2)CC1 (stereo not shown) [Example 19]
7.48	CCOC(=O)C1=C(COCCN2CCN(C(=O)Nc3ccc(C(=O)OCC)cc3)CC2)NC(C)=C(C(=O)OC)C1c1ccccc1Cl (stereo not shown) [Example 20]
7.66	CCOC(=O)C1=C(COCCN2CCN(C(=O)Nc3ccc(F)cc3)CC2)NC(C)=C(C(=O)OC)C1c1ccccc1Cl (stereo not shown) [Example 21]
8.62	CCOC(=O)C1=C(COCCN2CCN(C(=O)NC(C)C)CC2)NC(C)=C(C(=O)OC)C1c1ccccc1Cl (stereo not shown) [Example 22]
8.07	CCOC(=O)C1=C(COCCN2CCN(C(=O)NC3CCCCC3)CC2)NC(C)=C(C(=O)OC)C1c1ccccc1Cl (stereo not shown) [Example 23]
7.84	CCOC(=O)C1=C(COCCN2CCN(C(=O)Nc3cccnc3)CC2)NC(C)=C(C(=O)OC)C1c1ccccc1Cl (stereo not shown) [Example 24]
8.11	CCCNC(=O)N1CCN(CCOCC2=C(C(=O)OCC)C(c3ccccc3Cl)C(C(=O)OC)=C(C)N2)CC1 (stereo not shown) [Example 25]
7.87	CCOC(=O)C1=C(COCC(C)N2CCN(C(=O)NC)CC2)NC(C)=C(C(=O)OC)C1c1ccccc1Cl (stereo not shown) [Example 26]

pIC50	SMILES
7.68	CCNC(=O)N1CCN(C(C)COCC2=C(C(=O)OCC)C(c3ccccc3Cl)C(C(=O)OC)=C(C)N2)CC1 (stereo not shown) [Example 27]
8.03	CCOC(=O)C1=C(COCC(C)N2CCN(C(=O)NC(C)C)CC2)NC(C)=C(C(=O)OC)C1c1ccccc1Cl (stereo not shown) [Example 28]
7.82	CCOC(=O)C1=C(COCC(C)(C)N2CCN(C(=O)NC)CC2)NC(C)=C(C(=O)OC)C1c1ccccc1Cl (stereo not shown) [Example 29]
7.96	CCOC(=O)C1=C(COCCN2CCN(C(=O)NC)CC2)NC(C)=C(C(=O)OC)C1c1ccccc1C(F)(F)F (stereo not shown) [Example 30]
8.60	CCOC(=O)C1=C(COCCN2CCN(C(=O)NC)CC2)NC(C)=C(C(=O)OC)C1c1cccc(Cl)c1Cl (stereo not shown) [Example 31]
7.30	CCOC(=O)C1=C(COCCN2CCN(C(=O)NC)CC2)NC(C)=C(C(=O)OC)C1c1cc(Cl)cc(Cl)c1 (stereo not shown) [Example 32]
7.60	CCOC(=O)C1=C(COCCN2CCN(C(=O)NC)CC2)NC(C)=C(C(=O)OC)C1c1c(Cl)cccc1Cl (stereo not shown) [Example 33]
7.75	CCOC(=O)C1=C(COCCN2CCN(C(=O)NC)CC2)NC(C)=C(C(=O)OC)C1c1cccc(Cl)c1 (stereo not shown) [Example 34]
7.71	CCOC(=O)C1=C(COCCN2CCN(C(=O)NC)CC2)NC(C)=C(C(=O)OC)C1c1ccccc1F (stereo not shown) [Example 35]
6.00	CCOC(=O)C1=C(COCCN2CCN(C(=O)NC)CC2)NC(C)=C(C(=O)OC)C1c1nccs1 (stereo not shown) [Example 36]
8.10	CCOC(=O)C1=C(COCCN2CCN(C(N)=O)CC2)NC(C)=C(C(=O)OC)C1c1cccc(Cl)c1Cl (stereo not shown) [Example 37]
7.69	CCOC(=O)C1=C(COCCN2CCN(CC(=O)Nc3c(C)cccc3C)CC2)NC(C)=C(C(=O)OC)C1c1ccccc1Cl (stereo not shown) [Example 38, 4-(2-chlorophenyl)-2-[2-[4-(N-[2,6-dimethylphenyl]carbamoylmethyl)piperazin-1-yl]ethoxymethyl]-3-ethoxycarbonyl-5-methoxycarbonyl-6-methyl-1,4-dihydropyridine]
7.98	CCOC(=O)C1=C(COCCN2CCN(CC(=O)OC)CC2)NC(C)=C(C(=O)OC)C1c1ccccc1Cl (stereo not shown) [Example 39]
7.98	CCOC(=O)C1=C(COCCN2CCN(CC(N)=O)CC2)NC(C)=C(C(=O)OC)C1c1ccccc1Cl (stereo not shown) [Example 40]
7.89	CCOC(=O)C1=C(COCCN2CCN(C(=O)N(C)C)CC2)NC(C)=C(C(=O)OC)C1c1ccccc1Cl (stereo not shown) [Example 41, 4-(2-chlorophenyl)-2-[2-(4-[N,N-dimethylcarbamoyl]-piperazin-1-yl)ethoxymethyl]-3-ethoxycarbonyl-5-methoxycarbonyl-6-methyl-1,4-dihydropyridine, hydrochloride salt]
7.31	CCOC(=O)C1=C(COCCN2CCN(S(=O)(=O)N(C)C)CC2)NC(C)=C(C(=O)OC)C1c1ccccc1Cl (stereo not shown) [Example 42]
7.80	CCOC(=O)C1=C(COCCN2CCN(S(C)(=O)=O)CC2)NC(C)=C(C(=O)OC)C1c1ccccc1Cl (stereo not shown) [Example 43]
7.07	CCOC(=O)C1=C(COCCN2CCN(C(=O)c3ccco3)CC2)NC(C)=C(C(=O)OC)C1c1ccccc1Cl (stereo not shown) [Example 44]
8.00	CCOC(=O)C(=O)N1CCN(CCOCC2=C(C(=O)OCC)C(c3ccccc3Cl)C(C(=O)OC)=C(C)N2)CC1 (stereo not shown) [Example 45]
8.20	CCOC(=O)C1=C(COCCN2CCN(C(=O)COC)CC2)NC(C)=C(C(=O)OC)C1c1ccccc1Cl (stereo not shown) [Example 46]
7.88	CCOC(=O)C1=C(COCCN2CCN(C(=O)c3cccnc3)CC2)NC(C)=C(C(=O)OC)C1c1ccccc1Cl (stereo not shown) [Example 48]
8.00	CCOC(=O)C1=C(COCCN2CCN(C(=O)OCC)CC2)NC(C)=C(C(=O)OC)C1c1ccccc1Cl (stereo not shown) [Example 49]
8.23	CCOC(=O)C1=C(COCCN2CCN(C(=O)N3CCOCC3)CC2)NC(C)=C(C(=O)OC)C1c1ccccc1Cl (stereo not shown) [Example 50]
8.10	CCOC(=O)C1=C(COCCN2CCN(C=O)CC2)NC(C)=C(C(=O)OC)C1c1ccccc1Cl (stereo not shown) [Example 51, 4-(2-chlorophenyl)-3-ethoxycarbonyl-2-[2-(4-formylpiperazin-1-yl)ethoxymethyl]-5-methoxycarbonyl-6-methyl-1,4-dihydropyridine, bisoxalate salt]
8.01	CCOC(=O)C1=C(COCCN2CCN(C(=O)CC(C)=O)CC2)NC(C)=C(C(=O)OC)C1c1ccccc1Cl (stereo not shown) [Example 52, 2-[2-(4-acetoacetylpiperazin-1-yl)ethoxymethyl]-4-(2-chlorophenyl)-3-ethoxycarbonyl-5-methoxycarbonyl-6-methyl-1,4-dihydropyridine, hydrochloride hydrate]
7.38	CCOC(=O)C1=C(COCCN2CCN(S(N)(=O)=O)CC2)NC(C)=C(C(=O)OC)C1c1ccccc1Cl (stereo not shown) [Example 53, 4-(2-chlorophenyl)-3-ethoxycarbonyl-5-methoxycarbonyl-6-methyl-2-[2-(4-sulphamoylpiperazin-1-yl)ethoxymethyl]-1,4-dihydropyridine, hydrochloride hydrate]
